In patent publication US20150150892A1, “METHODS AND PRODUCTS RELATED TO LUNG CANCER” (Massachusetts Institute of Technology, priority 2012, published 2015):

How the values were obtained:
[1] = system: NF-κB transcription factor subunit p65; test: Immunoblot of nuclear and cytoplasmic p65 in KP cell lines; type: cell-based, mouse; conditions: 5 nM bortezomib, 24 hours, KP1 and KP2 cell lines, vs vehicle control
Method: (§1) FIG. 1. Bortezomib inhibits NF-κB signaling and induces apoptosis in murine lung adenocarcinoma cell lines. (1A) reduction of nuclear p65 level by bortezomib. Two KP (KrasLSL-G12D/wt;p53flox/flox) cell lines (KP1 and KP2) were treated with 5 nM bortezomib (BZ) or vehicle control (ctrl) for 24 hours. Nuclear (N) and cytoplasmic (C) fractions of protein lysates were immunoblotted with the indicated antibodies. NEMO and Parp serve as cytoplasmic and nuclear loading controls, respectively. (1B) quantitative PCR analysis of a subset of NF-κB target genes in 5 nM bortezomib (BZ)-treated KP cells at the indicated time points. Vehicle control is set to 1. (1C) apoptosis in KP and KP^M (KrasLSL-G12D/wt;p53R127H/−) cells induced by bortezomib. Cells were pre-treated with 5 nM bortezomib for 24 hours, and protein lysates were immunoblotted with CC3 and tubulin antibodies. (1D) quantification of cell death in bortezomib-treated cells. Cells were treated with the indicated concentrations of bortezomib for 24 hours, and dead cells were quantified by Trypan blue staining. Error bars are SD (n=3).
Cell pellets were lysed in Laemmli buffer. Equal amounts of protein (16 μg) were separated on 10% SDS-polyacrylamide gels and transferred to polyvinylidene difluoride membranes. […]

NF-κB target genes = test: Quantitative PCR of NF-κB target genes in KP cells; type: cell-based, mouse
Method: as §1
FIG. 7: The NF-κB inhibitor Bay-117082 leads to lung tumor regression in vivo. (7A) quantitative PCR analysis of NF-κB target gene expression in KP cells treated with 10 μM Bay-117082 for indicated hours. Error bars are SD (n=3). (7B) Bay-117082 treatment leads to lung tumor regression and delays tumor progression in the orthotopic lung tumor model. A total of 50,000 luciferase-tagged KP cells were transplanted into recipient mice (n=6), and treatment was started at 19 days after transplantation (set at D0). Mice were treated with vehicle control or 10 mg/kg Bay-117082 by i.p. injection, and imaged at the indicated time points. Arrows indicate Bay-117082 injections. (7C) Bay-117082 prolongs survival in the KP model (n=6; P=0.008). “i.p. dosing” indicates treatment with 3 doses per week.
RNA was purified using TRIzol (Invitrogen), according to the manufacturer's instructions. One microgram of RNA was reverse transcribed using the High-Capacity cDNA Reverse Transcription Kit (Applied Biosystems). Real-time PCR (quantitative PCR) amplification was performed using Taqman probes (Applied Biosystems). Data were normalized to the Gapdh (mouse) or GAPDH (human) levels.

KP and KP^M cells = test: Trypan blue quantification of cell death; type: cell-based, mouse; conditions: 24 hours, indicated concentrations
Method: as §1
As the NF-κB pathway is known to inhibit apoptosis through its regulation of antiapoptotic genes, we next addressed the cytotoxicity of bortezomib in vitro (6).

[2] = system: LKR13 cells and 3TZ fibroblasts; test: Trypan blue quantification of cell death, control cells; type: cell-based, mouse; conditions: 24 hours
[3] = system: KrasL^St-G12Dwt (low NF-κB) mice; test: FIG. 19 study, mice with low NF-κB; type: in vivo, mouse; conditions: 1 mg/kg IV bortezomib
Method: FIG. 19 is a schetaic diagram showing the experimental conditions and a set of graphs showing the results. Two sets of mice were treated with […] IV bortezomib, Kras^G120;p53^fl/fl (high NF-κB, top panel) or KrasL^St-G12Dwt (low NF-κB, bottom panel). […] The relapsed tumors have high Hmcgs2.
Mice having either high or low levels of NF-κB were treated with […] IV bortezomib and examined for tumor progression, apoptosis and survival. The mice are Kras^G120;p53^fl/fl (high NF-κB) or KrasL^St-G12Dwt (low NF-κB). […] The relapsed tumors have high Hmcgs2.

[4] = 5 nM bortezomib, time course, KP cells

**Q.** Which “nuclear accumulation of p65” value [1] does the source give for `CC(C)C[C@H](NC(=O)[C@H](Cc1ccccc1)NC(=O)c1cnccn1)B(O)O` [bortezomib, N-(2-pyrazine) carbonyl-L-phenylalanine-L-leucine boronic acid] here?
**A.** reduced nuclear accumulation

**Q.** What about the “I16 mRNA level” value (NF-κB target genes; 5 nM bortezomib, KP cells) of the same compound?
**A.** increased

**Q.** And the “expression of inflammation NF-κB targets I16, Tnf, Mmp3” value (NF-κB target genes; [4])?
**A.** not reduced

**Q.** And the “expression of proliferation related NF-κB target genes c-Myc and Cyclin D1” value (NF-κB target genes; [4])?
**A.** reduced expression

**Q.** And the “expression of NF-κB-regulated antiapoptosis genes Bcl2, Bclx1, Birc2 (cIAP1), Birc5 (Survivin)” value (NF-κB target genes; 5 nM bortezomib, time course, KP cells, real-time PCR)?
**A.** consistently downregulated

**Q.** What about the “Bcl2 and Myc inhibition, bortezomib compared with Bay-117082” value (NF-κB target genes; KP cells in vitro, FIG. 1B and FIG. 7A) of the same compound?
**A.** more robust

**Q.** What about the “cell death by Trypan blue counting” value (KP and KP^M cells) of the same compound?
**A.** caused cell death in a dose-dependent manner

**Q.** And the “cell death by Trypan blue counting” value [2]?
**A.** did not show substantial cell death

**Q.** And the “tumor response, apoptosis and survival (FIG. 19)” value [3]?
**A.** no tumor regression, apoptosis and no survival advantage
